Test [1] has as its target HDAC-9 (Homo sapiens, UniProt Q9UKV0). Put plainly: HDAC Fluorescent Activity Assay (Fluor de Lys), HDAC-9.
For test [2], the target named is HDAC-7 (Homo sapiens, UniProt Q8WUI4). Description: HDAC Fluorescent Activity Assay (Fluor de Lys), HDAC-7.
The target of test [3] is HDAC-5 (Homo sapiens, UniProt Q9UQL6). Put plainly: HDAC Fluorescent Activity Assay (Fluor de Lys), HDAC-5.
Test [4] has as its target HDAC-2 (Homo sapiens, UniProt Q92769). Put plainly: HDAC Fluorescent Activity Assay (Fluor de Lys), HDAC-2.
In test [5] the target is HDAC-4 (Homo sapiens, UniProt P56524). Description: HDAC Fluorescent Activity Assay (Fluor de Lys), HDAC-4.
Test [6] deals with HDAC-11 (Homo sapiens, UniProt Q96DB2). Description: HDAC Fluorescent Activity Assay (Fluor de Lys), HDAC-11.
In test [7] the target is HDAC-1 (Homo sapiens, UniProt Q13547). Put plainly: HDAC Fluorescent Activity Assay (Fluor de Lys), HDAC-1.
Test [8] deals with HDAC-6 (Homo sapiens, UniProt Q9UBN7). Description: HDAC Fluorescent Activity Assay (Fluor de Lys), HDAC-6.
Test [9] deals with HDAC-10 (Homo sapiens, UniProt Q969S8). Description: HDAC Fluorescent Activity Assay (Fluor de Lys), HDAC-10.
In test [10] the target is HDAC-3 (Homo sapiens, UniProt O15379). Put plainly: HDAC Fluorescent Activity Assay (Fluor de Lys), HDAC-3.
The target of test [11] is HDAC-8 (Homo sapiens, UniProt Q9BY41). Description: HDAC Fluorescent Activity Assay (Fluor de Lys), HDAC-8.
Test [12] has as its target TTK/Mps1 (Homo sapiens, UniProt P33981). As to conditions: TTK/Mps1 inhibitors of the literature; cited from earlier work.
The subject of test [13] is ovarian xenograft. As to conditions: cited from earlier work.

The IC50 is the concentration needed to halve the response being measured.

Chain of HDAC-5 (Q9UQL6 whole entry): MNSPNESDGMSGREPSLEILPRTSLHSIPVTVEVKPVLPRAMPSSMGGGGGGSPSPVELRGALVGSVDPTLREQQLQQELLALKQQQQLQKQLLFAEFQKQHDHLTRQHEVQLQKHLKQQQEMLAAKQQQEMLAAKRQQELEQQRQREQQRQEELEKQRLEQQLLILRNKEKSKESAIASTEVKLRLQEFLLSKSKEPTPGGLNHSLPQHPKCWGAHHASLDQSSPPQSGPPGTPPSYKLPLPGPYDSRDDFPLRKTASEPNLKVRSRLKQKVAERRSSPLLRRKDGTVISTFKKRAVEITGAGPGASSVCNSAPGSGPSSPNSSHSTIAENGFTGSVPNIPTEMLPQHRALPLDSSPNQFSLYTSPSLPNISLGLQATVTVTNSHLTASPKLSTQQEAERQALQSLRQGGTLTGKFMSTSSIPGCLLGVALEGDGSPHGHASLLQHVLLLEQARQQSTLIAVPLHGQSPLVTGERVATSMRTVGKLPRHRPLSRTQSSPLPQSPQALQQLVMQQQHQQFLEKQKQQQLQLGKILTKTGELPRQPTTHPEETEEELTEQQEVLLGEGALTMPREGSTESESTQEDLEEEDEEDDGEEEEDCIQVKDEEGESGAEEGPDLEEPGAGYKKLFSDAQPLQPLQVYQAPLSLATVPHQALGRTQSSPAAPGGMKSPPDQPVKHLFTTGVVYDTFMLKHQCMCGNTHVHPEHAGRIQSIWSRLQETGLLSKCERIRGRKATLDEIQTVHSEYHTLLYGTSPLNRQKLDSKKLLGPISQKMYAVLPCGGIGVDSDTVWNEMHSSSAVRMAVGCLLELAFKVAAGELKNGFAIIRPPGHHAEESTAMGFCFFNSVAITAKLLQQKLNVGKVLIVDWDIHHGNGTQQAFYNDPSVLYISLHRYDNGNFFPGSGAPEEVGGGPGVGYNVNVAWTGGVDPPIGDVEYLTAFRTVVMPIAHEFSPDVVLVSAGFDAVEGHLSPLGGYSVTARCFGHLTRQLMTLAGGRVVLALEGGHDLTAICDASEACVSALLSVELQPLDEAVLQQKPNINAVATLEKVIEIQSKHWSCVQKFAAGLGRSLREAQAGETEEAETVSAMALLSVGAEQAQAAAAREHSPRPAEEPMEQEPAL
Chain of HDAC-7 (Q8WUI4 whole entry): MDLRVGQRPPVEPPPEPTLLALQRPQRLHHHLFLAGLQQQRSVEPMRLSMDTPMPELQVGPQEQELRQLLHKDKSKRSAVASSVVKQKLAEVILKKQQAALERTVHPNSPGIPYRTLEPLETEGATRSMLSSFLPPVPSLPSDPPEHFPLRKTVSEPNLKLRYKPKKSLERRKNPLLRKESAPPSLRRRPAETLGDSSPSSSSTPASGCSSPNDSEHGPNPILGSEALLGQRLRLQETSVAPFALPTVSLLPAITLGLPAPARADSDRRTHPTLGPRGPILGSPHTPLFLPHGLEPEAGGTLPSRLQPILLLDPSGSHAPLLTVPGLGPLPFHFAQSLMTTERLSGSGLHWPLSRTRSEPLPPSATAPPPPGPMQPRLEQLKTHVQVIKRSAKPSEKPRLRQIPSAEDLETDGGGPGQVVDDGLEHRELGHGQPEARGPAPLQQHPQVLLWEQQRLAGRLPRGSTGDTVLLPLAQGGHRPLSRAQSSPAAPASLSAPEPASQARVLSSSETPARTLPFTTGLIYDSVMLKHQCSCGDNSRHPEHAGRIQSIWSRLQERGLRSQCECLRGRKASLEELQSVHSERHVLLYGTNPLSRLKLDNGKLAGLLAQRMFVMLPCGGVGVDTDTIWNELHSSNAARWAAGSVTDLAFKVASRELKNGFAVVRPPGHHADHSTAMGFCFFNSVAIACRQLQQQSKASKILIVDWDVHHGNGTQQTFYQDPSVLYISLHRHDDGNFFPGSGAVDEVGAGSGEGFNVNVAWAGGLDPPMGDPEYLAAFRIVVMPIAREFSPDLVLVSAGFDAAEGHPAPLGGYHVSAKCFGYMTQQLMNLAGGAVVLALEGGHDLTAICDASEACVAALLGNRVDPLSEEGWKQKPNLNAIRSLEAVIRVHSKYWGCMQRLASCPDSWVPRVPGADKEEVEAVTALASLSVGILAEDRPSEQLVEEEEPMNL
Chain of HDAC-10 (Q969S8 whole entry): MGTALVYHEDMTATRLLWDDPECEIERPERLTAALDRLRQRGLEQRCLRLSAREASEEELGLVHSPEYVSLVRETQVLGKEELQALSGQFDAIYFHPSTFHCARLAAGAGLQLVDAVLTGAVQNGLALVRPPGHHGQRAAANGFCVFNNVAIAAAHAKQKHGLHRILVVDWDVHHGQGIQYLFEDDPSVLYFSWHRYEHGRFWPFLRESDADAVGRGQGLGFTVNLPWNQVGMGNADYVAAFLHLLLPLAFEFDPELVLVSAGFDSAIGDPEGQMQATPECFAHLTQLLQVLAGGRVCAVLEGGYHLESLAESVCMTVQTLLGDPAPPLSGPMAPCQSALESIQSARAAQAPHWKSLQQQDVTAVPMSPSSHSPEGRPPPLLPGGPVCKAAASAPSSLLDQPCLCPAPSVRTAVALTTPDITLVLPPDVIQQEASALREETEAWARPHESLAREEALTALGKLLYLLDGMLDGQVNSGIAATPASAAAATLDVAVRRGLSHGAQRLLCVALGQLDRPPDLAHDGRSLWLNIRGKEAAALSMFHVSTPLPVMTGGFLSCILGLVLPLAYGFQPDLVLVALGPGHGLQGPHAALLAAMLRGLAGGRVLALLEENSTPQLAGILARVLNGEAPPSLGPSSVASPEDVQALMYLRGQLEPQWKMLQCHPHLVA
Chain of HDAC-2 (Q92769 whole entry): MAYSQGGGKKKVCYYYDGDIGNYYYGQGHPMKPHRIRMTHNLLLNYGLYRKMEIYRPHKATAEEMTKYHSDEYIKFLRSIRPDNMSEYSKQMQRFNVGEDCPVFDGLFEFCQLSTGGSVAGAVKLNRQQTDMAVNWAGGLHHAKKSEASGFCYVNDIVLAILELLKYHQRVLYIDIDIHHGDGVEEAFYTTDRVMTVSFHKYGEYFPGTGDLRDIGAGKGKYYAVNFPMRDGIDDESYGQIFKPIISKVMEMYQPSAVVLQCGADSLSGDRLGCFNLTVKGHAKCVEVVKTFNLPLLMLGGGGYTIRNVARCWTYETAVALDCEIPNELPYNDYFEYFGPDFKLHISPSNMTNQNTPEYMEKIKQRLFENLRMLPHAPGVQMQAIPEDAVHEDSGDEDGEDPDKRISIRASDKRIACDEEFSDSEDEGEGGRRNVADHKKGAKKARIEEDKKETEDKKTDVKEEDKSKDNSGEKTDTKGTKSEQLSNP
Chain of HDAC-11 (Q96DB2 whole entry): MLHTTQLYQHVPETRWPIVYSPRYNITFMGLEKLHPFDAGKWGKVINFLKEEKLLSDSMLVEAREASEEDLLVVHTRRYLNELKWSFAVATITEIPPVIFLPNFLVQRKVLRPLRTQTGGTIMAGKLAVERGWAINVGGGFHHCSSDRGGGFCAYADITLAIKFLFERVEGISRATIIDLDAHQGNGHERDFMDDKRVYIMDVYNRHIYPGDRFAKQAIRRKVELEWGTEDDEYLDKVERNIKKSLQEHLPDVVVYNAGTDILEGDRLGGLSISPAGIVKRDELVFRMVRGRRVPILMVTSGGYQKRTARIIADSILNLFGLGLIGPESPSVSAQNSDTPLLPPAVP
Chain of HDAC-8 (Q9BY41 whole entry): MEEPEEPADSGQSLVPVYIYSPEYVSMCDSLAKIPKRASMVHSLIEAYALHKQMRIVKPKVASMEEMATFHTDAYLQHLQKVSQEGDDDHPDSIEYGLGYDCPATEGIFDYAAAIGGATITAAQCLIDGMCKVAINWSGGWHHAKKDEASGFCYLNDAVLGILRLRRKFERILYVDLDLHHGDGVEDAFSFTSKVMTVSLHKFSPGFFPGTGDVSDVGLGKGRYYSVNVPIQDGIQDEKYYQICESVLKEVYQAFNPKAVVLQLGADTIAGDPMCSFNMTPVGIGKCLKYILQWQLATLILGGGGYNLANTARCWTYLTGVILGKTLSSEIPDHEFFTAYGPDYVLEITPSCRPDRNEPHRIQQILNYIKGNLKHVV
Chain of HDAC-1 (Q13547 whole entry): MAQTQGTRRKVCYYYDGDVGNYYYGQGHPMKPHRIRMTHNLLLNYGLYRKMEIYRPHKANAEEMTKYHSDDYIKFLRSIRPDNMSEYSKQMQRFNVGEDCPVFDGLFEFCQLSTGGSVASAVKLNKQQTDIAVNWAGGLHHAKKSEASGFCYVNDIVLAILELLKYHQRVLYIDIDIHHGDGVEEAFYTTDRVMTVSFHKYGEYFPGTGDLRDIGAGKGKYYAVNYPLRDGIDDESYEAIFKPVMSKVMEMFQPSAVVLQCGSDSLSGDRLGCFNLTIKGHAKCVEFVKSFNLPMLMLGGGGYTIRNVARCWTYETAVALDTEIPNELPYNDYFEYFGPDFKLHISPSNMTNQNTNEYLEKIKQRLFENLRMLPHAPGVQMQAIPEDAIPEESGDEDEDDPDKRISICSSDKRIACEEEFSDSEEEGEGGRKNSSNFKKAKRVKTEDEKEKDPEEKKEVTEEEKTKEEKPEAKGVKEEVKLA
Chain of HDAC-3 (O15379 whole entry): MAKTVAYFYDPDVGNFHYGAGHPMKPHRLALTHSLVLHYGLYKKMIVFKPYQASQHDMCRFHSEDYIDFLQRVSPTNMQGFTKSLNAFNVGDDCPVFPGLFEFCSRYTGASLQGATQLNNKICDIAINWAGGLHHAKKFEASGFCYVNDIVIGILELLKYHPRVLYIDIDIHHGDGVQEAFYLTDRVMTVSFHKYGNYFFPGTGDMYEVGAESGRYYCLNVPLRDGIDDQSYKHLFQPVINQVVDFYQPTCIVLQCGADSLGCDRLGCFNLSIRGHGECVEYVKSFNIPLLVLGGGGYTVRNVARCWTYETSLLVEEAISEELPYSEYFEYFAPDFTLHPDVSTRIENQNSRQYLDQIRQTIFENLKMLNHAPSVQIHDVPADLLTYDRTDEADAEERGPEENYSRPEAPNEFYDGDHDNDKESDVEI
Chain of HDAC-3 (Q9Y618 395-489 partner limits assumed): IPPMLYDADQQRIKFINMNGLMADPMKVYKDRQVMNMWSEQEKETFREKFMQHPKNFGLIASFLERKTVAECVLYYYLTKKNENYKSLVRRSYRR

Regarding `Cn1cnc2c(NC3CCCCC3)nc(Nc3ccc(OCCCCCCC(=O)NO)cc3)nc21` [Example 8, 7-(4-(6-(Cyclohexylamino)-9-methyl-9H-purin-2-ylamino)phenoxy)-N-hydroxyheptanamide], the IC50 in test [1] was > 100000 nM; in [2], > 100000 nM; in test [3] it was > 100000 nM; in test [4], 124 nM; in test [5], > 100000 nM; in [6], 12 nM. The IC50 in test [7] was determined as 23 nM; in [8] it was 6.8 nM; in [9], 19 nM; in test [10] it was 140 nM; in test [11], 268 nM.

Regarding `Oc1c2ccccc2c2c3c(cccc13)N=N2` [SP600125], in [12], the IC50 is 250 nM.

On to `Cn1cnc2c(NC3CCCCC3)nc(Nc3ccc(OCCCCCC(=O)NO)cc3)nc21` [Example 9, 6-(4-(6-(cyclohexylamino)-9-methyl-9H-purin-2-ylamino)phenoxy)-N-hydroxyhexanamide], for which the IC50 in test [1] is > 100000 nM; in [2], > 100000 nM; in [3], > 100000 nM; in test [4], 1640 nM; in test [5] it was > 100000 nM; in [6], 159 nM. In addition, the IC50 in [7] was found to be 422 nM; in [8], 9.8 nM; in test [9] it was 284 nM; in [10] it was 1180 nM; in test [11], 225 nM.

Take `CCc1cccc(CC)c1NC(=O)c1nn(C)c2c1CCc1cnc(Nc3ccc(C(=O)NC4CCN(C)CC4)cc3OC(F)(F)F)nc1-2` [NMS-P715]: the “efficacy in an ovarian xenograft” value in test [13] is “promising efficacies”.

The values are drawn from patent US9840520B2, “Heterocyclic hydroxamic acids as protein deacetylase inhibitors and dual protein deacetylase-protein kinase inhibitors and methods of use thereof” (The Regents of the University of Colorado, A Body Corporate, priority 2014, dated 2017).
